PubChem BioAssay (NCI)
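Compound exposure: 48 hours, 5 concentrations, 96-well plates. GI50: concentration for 50% inhibition of growth. The concentration for full growth arrest is given as TGI.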

Key:
Test in all cases: growth of human tumour cells (NCI), 48 h
[1] = system: M14 melanoma
[2] = system: IGROV1 ovarian
[3] = system: MDA-MB-435
[4] = system: PC-3 prostate
[5] = system: OVCAR-4 ovarian
[6] = system: SK-MEL-5 melanoma
[7] = system: SF-268 CNS
[8] = system: SK-MEL-28 melanoma
[9] = system: LOX IMVI melanoma
[10] = system: HCT-116 colon
[11] = system: NCI-H460 lung
[12] = system: HCT-15 colon
[13] = system: OVCAR-5 ovarian
[14] = system: BT-549 breast
[15] = system: SK-MEL-2 melanoma
[16] = system: DU-145 prostate
[17] = system: HS 578T breast
[18] = system: NCI-H23 lung
[19] = system: CCRF-CEM leukemia
[20] = system: T-47D breast
[21] = system: ACHN renal
[22] = system: HT29 colon
[23] = system: HCC-2998 colon
[24] = system: MCF7 breast
[25] = system: SF-295 CNS
[26] = system: MOLT-4 leukemia
[27] = system: SNB-75 CNS
[28] = system: CAKI-1 renal
[29] = system: HL-60(TB) leukemia
[30] = system: SK-OV-3 ovarian
[31] = system: SF-539 CNS
[32] = system: NCI-H226 lung
[33] = system: NCI/ADR-RES ovarian
[34] = system: MALME-3M melanoma
[35] = system: MDA-MB-231 breast
[36] = system: SNB-19 CNS
[37] = system: OVCAR-3 ovarian
[38] = system: UACC-62 melanoma
[39] = system: A549 NSCLC
[40] = system: EKVX NSCLC
[41] = system: K-562 leukemia
[42] = system: A498 renal
[43] = system: SN12C renal
[44] = system: SR leukemia
[45] = system: TK-10 renal
[46] = system: RXF 393 renal
[47] = system: SW-620 colon
[48] = system: KM12 colon
[49] = system: HOP-92 NSCLC
[50] = system: OVCAR-8 ovarian
[51] = system: UACC-257 melanoma
[52] = system: UO-31 renal
[53] = system: NCI-H522 lung
[54] = system: COLO 205 colon
[55] = system: U251 CNS
[56] = system: 786-0 renal
[57] = system: RPMI-8226 leukemia
[58] = system: HOP-62 NSCLC

## COc1cc(-c2ccc(-c3ccc(C(=N)N)cc3)s2)cc(OC)c1OC
[1]
  GI50: 1.62 µM
  TGI: 3.36 µM
[2]
  GI50: 5 µM
  TGI: 18.5 µM
[3]
  GI50: 1.57 µM
  TGI: 3.01 µM
[4]
  GI50: 2.94 µM
  TGI: 11.2 µM
[5]
  GI50: 1.76 µM
  TGI: 4.03 µM
[6]
  GI50: 1.72 µM
  TGI: 3.1 µM
[7]
  GI50: 2.41 µM
  TGI: 7.36 µM
[8]
  GI50: 1.6 µM
  TGI: 3.05 µM
[9]
  GI50: 1.72 µM
  TGI: 3.1 µM
[10]
  GI50: 1.56 µM
  TGI: 3.19 µM
[11]
  GI50: 1.83 µM
  TGI: 3.47 µM
[12]
  GI50: 2.25 µM
  TGI: 5.29 µM
[13]
  GI50: 3.46 µM
  TGI: 13.8 µM
[14]
  GI50: 2.69 µM
  TGI: 9.4 µM
[15]
  GI50: 1.91 µM
  TGI: 3.73 µM
[16]
  GI50: 2.41 µM
  TGI: 6.09 µM
[17]
  GI50: 1.75 µM
  TGI: 4.16 µM
[18]
  GI50: 2.25 µM
  TGI: 5.4 µM
[19]
  GI50: 2.93 µM
  TGI: 11.7 µM
[20]
  GI50: 1.9 µM
  TGI: 4.92 µM
[21]
  GI50: 1.73 µM
  TGI: 3.19 µM
[22]
  GI50: 1.5 µM
  TGI: 5.56 µM
[23]
  GI50: 1.79 µM
  TGI: 3.24 µM
[24]
  GI50: 1.65 µM
  TGI: 4.36 µM
[25]
  GI50: 1.77 µM
  TGI: 3.45 µM
[26]
  GI50: 2.2 µM
  TGI: 6.15 µM
[27]
  GI50: 1.6 µM
  TGI: 6.19 µM
[28]
  GI50: 1.72 µM
  TGI: 3.22 µM
[29]
  GI50: 2.13 µM
  TGI: 4.75 µM
[30]
  GI50: 2.45 µM
  TGI: 6.65 µM
[31]
  GI50: 1.62 µM
  TGI: 3.03 µM
[32]
  GI50: 2.16 µM
  TGI: 6.58 µM
[33]
  GI50: 7.88 µM
  TGI: 23.6 µM
[34]
  GI50: 1.46 µM
  TGI: 2.9 µM
[35]
  GI50: 1.62 µM
  TGI: 3.26 µM
[36]
  GI50: 2.36 µM
  TGI: 6.56 µM
[37]
  GI50: 2.01 µM
  TGI: 3.87 µM
[38]
  GI50: 2.77 µM
  TGI: 10.3 µM
[39]
  GI50: 3.63 µM
  TGI: 14.7 µM
[40]
  GI50: 4.69 µM
  TGI: 19.7 µM
[41]
  GI50: 2.63 µM
  TGI: 10.2 µM
[42]
  GI50: 0.215 µM
  TGI: 3.96 µM
[43]
  GI50: 4.5 µM
  TGI: 18.8 µM
[44]
  GI50: 2.08 µM
  TGI: 5.43 µM
[45]
  GI50: 2.05 µM
  TGI: 4.02 µM
[46]
  GI50: 2.1 µM
  TGI: 4.08 µM
[47]
  GI50: 1.73 µM
  TGI: 3.31 µM
[48]
  GI50: 1.67 µM
  TGI: 3.35 µM
[49]
  GI50: 1.29 µM
  TGI: 3.72 µM
[50]
  GI50: 2.34 µM
  TGI: 5.87 µM
[51]
  GI50: 2.02 µM
  TGI: 4.37 µM
[52]
  GI50: 3.37 µM
  TGI: 14.8 µM

## CC(=O)OC1C2CCC1C1C2N=NN1c1ccc([N+](=O)[O-])cc1 (centres undefined)
[1]
  TGI: > 100 µM
[2]
  TGI: > 100 µM
[3]
  TGI: > 100 µM
[4]
  TGI: > 100 µM
[5]
  TGI: > 100 µM
[6]
  TGI: > 100 µM
[7]
  TGI: > 100 µM
[8]
  TGI: > 100 µM
[9]
  TGI: > 100 µM
[10]
  TGI: > 100 µM
[11]
  TGI: > 100 µM
[12]
  TGI: > 100 µM
[13]
  TGI: > 100 µM
[53]
  TGI: > 100 µM
[14]
  TGI: > 100 µM
[54]
  TGI: > 100 µM
[55]
  TGI: > 100 µM
[15]
  TGI: > 100 µM
[16]
  TGI: > 100 µM
[17]
  TGI: > 100 µM
[18]
  TGI: > 100 µM
[19]
  TGI: > 100 µM
[20]
  TGI: > 100 µM
[21]
  TGI: > 100 µM
[22]
  TGI: > 100 µM
[23]
  TGI: > 100 µM
[24]
  TGI: > 100 µM
[25]
  TGI: > 100 µM
[26]
  TGI: > 100 µM
[27]
  TGI: > 100 µM
[29]
  TGI: > 100 µM
[30]
  TGI: > 100 µM
[56]
  TGI: > 100 µM
[31]
  TGI: > 100 µM
[32]
  TGI: > 100 µM
[33]
  TGI: > 100 µM
[34]
  TGI: > 100 µM
[35]
  TGI: > 100 µM
[36]
  TGI: > 100 µM
[37]
  TGI: > 100 µM
[38]
  TGI: > 100 µM
[39]
  TGI: > 100 µM
[57]
  TGI: > 100 µM
[40]
  TGI: > 100 µM
[42]
  TGI: > 100 µM
[58]
  TGI: > 100 µM
[43]
  TGI: > 100 µM
[44]
  TGI: > 100 µM
[45]
  TGI: > 100 µM
[47]
  TGI: > 100 µM
[48]
  TGI: > 100 µM
[49]
  TGI: > 100 µM
[50]
  TGI: > 100 µM
[51]
  TGI: > 100 µM
[52]
  TGI: > 100 µM
